Source: patent publication US20220409526A1 (Retina Foundation Of The Southwest, priority 2019, published 2022)

Key:
[1] = test system: ARPE-19 cells; assay: in vitro; assay type: cell-based, human
Procedure: (§1) ARPE-19 cells were grown in DMEM:F-12 supplemented with 10% fetal bovine serum (FBS). For all experiments these cells were split and grown in 6-well plates using MEM-Nic supplemented with 1% FBS according to a previously published procedure.^33 Cells used for all the experiments were between passages 25-30. For all experiments, the 96 well plates and 8-well slides were coated with 0.039 mg/mL collagen I at 6 μg/cm^2. The cells were seeded at a cell density of 70,000 cells/well and 150,000 cells/well using MEM-Nic media for 96 well plates and 8 well slides, respectively. Once the cells are confluent, media was replaced with MEM a, GlutaMAX™, supplemented with 1% FBS for 24 hours before carrying out assay protocols. Exposure to NAC alkyl-ester prodrugs were carried out in MEM a, GlutaMAX™, supplemented with 1% FBS and treatment with HQ was carried out in serum free DMEM:F-12.
(§2) ARPE-19 Cell viability assays were carried out using XTT/PMS reagent mixtures according to standard procedures known in the art (see Celis, J. E.; Carter, N., Cell Biology: A Laboratory Handbook. Elsevier Science: 2005). Corresponding absorbance readings were obtained using a plate reader at 450 and 660 nm.
(§3) A dose dependent study was first carried out for ARPE-19 cells using HQ concentrations varying from 100-1000 μM. Cells were then incubated at 37° C., 5% CO2 for 16 hours. HQ doses of less than 400 μM were non-lethal. Using 500 μM HQ for 16 hours gave a cell viability of ˜60%.
(§4) To evaluate the ability of the NAC alkyl-ester analogues to provide cellular protection against oxidative stress, cells were treated with 0.05 mM of NAC, NACME, NACEE, NACPE and NACBE for 2, 24 and 48 hours. Treated cells were then exposed to 500 μM HQ for 16 hours. HQ solutions were removed and replaced with DMEM:F-12 supplemented with 1% FBS, and followed by the addition of XTT (2,3-bis-(2-methoxy-4-nitro-5-sulfophenyl)-2H-tetrazolium-5-carboxanilide) and PMS (phenazine methyl sulfate).
(§5) To compare the effectiveness of NACBE and NAC in protecting against oxidative damage, another dose dependent study was carried out by varying the pretreatment concentration from 0.001 mM to 1.0 mM. […] Whereas for NAC, to reach the same cell viability, 0.5 mM concentration was needed (10× times that of NACBE).

[2] = test system: ARPE-19 cells; assay: ZO-1 staining of cellular junctions; assay type: cell-based, human
Procedure: ARPE-19 cells were grown on an 8-well slide until confluent. The cells were exposed to 1 mM NAC and NACBE for 24 hours, followed by treatment with 500 μM of HQ for 2 hours. The cells were washed with 3 cycles of PBS, and then fixed with 4% Paraformaldehyde at 4° C. for 30 mins. After fixation the cells were blocked in PBST (0.2% Triton X-100)+1% BSA for 60 mins. Primary antibody (rabbit anti-Zo-1, Invitrogen) was diluted 1/100 in PBST+1% BSA and added overnight at […]. Cells were washed ×3 with PBS and secondary antibody (Donkey anti-Rabbit AF-555, Abcam) was added for 4 hours at RT. Cells were washed ×3 with PBS and mounted with Prolong Diamond Mountant with DAPI (Invitrogen).

[3] = test system: ARPE-19 cells; assay: HPLC analysis of cellular uptake and conversion to NAC; assay type: in vitro ADME, human; conditions: 1 mM for 1 hour in HBSS
Procedure: ARPE-19 cells were seeded onto a 60 cm^2 dish and was allowed to grow to confluency. The cells were treated with 1 mM NAC and NACBE for 1 hour in HBSS. The drug solution was aspirated and washed twice with HBSS. The cells were scraped with the aid of methanol (˜1 mL) and collected into 2 mL centrifuge tubes. The cell suspension in methanol was sonicated (for cell lysis) in a water bath for 30 minutes and was centrifuged at 14,000 RPM for 15 minutes. The supernatant was transferred to a HPLC vial and methanol was evaporated under a stream of nitrogen.
The sample was resuspended in 50 μL of methanol before injecting into the HPLC system. Samples and standard (20 μL) were injected with an autosampler. Separation was conducted by 0.8 mL/min gradient elution with a water/0.10% formic acid and acetonitrile mobile phase on a 250×4.6-mm ([…]) C18 column (Restek, Pinnacle II) maintained at 25° C. The samples were monitored at 205 nm with a UV detector and analyzed with Agilent Chemstation software.

[4] = test system: ARPE-19 cells; assay: GSH assay (Promega GSH/GSSG-Glo); assay type: cell-based, human; conditions: 1 mM for 24 hours
Procedure: The production of cellular GSH levels upon exposure to drugs were measured using the GSH assay kit. NACA and GSH-EE were used as controls in this assay. ARPE-19 cells were grown in white 96 well plates. The cells were exposed to 1 mM solutions of NAC, NACME, NACEE, NACPE, NACBE, NACA and glutathione ethyl ester (GSH-EE) for 24 hours. The solutions were removed and washed with PBS once. Afterwards, GSH assay was carried out according to manufacturer recommended protocol (Promega GSH/GSSG-Glo™) and luminescence readings were obtained with a luminometer, which a higher luminescence intensity indicates a higher GSH concentration.

[5] = test system: ARPE-19 cells; assay: CellTiter-Glo assay (ATP); assay type: cell-based, human
Procedure: ARPE-19 cells were grown in white 96 well plates. The cells were first exposed to 500 μM of HQ for 3, 6 and 8 hours and the amount of ATP produced was measured using the CellTiter-Glo assay kit to obtain a time dependent response (FIG. 15). […] Due to the mitochondrial damage caused by HQ, the production of ATP was decreased.

[6] = test system: mitochondrial DNA of ARPE-19 cells; assay: DNA fragmentation assay (long-extension PCR of mitochondrial DNA); assay type: cell-based, human
Procedure: Mitochondrial DNA damage has been linked to pathogenic diseases, including AMD. To determine if pretreatment of RPE cells with NAC alkyl-ester analogues could protect mitochondrial DNA against oxidative damage, a long-extension PCR based assay was used to measure amplification of a large stretch of mitochondrial DNA. The mitochondrial DNA damage assay was performed according to protocols known to those in the art (see Santos, J. H.; Mandavilli, B. S.; Van Houten, B., Measuring Oxidative mtDNA Damage and Repair Using Quantitative PCR. In Mitochondrial DNA: Methods and Protocols, Copeland, W. C., Ed. Humana Press: Totowa, N.J., 2002; pp 159-176). Briefly, ARPE-19 cells were grown to confluency in 6-well plates. The cells were treated with NAC alkyl-ester analogues for 24 hours, washed and then treated with 500 uM HQ for an additional 24 hours. DNA was isolated from the treated cells with a QIAamp DNA mini kit (Qiagen). The DNA samples were diluted to 3 ng/μl for use in PCR reactions. PCR products were quantified using the Quant-iT Picogreen dsDNA Assay kit (Invitrogen). The relative amplification of the large band was normalized to untreated cells. The amplification of the small mitochondrial band was used to normalize the data obtained from the large band to account for mitochondrial DNA copy number.

[7] = test system: ARPE-19 cells; assay: JC-1 staining (confocal); conditions: 1 mM pretreatment for 24 hours, then 50 μM HQ for 4 hours
Excerpt: The cells were imaged on the confocal (Zeiss LSM 800) by excitation with the 488 nm laser and emission imaged at 530 nm (green channel) and 590 nm (red channel).

[8] = in vitro; assay type: cell-based, human; conditions: human
Procedure: as §1, §2, §3, §4, §5

[9] = test system: ARPE-19 cells; assay: JC-1 assay (mitochondrial membrane potential); assay type: cell-based, human; conditions: 50 μM HQ for 4 hours, compared to the control
Procedure: JC-1 assays measuring the change in mitochondrial membrane potential were carried out to evaluate the protection of the NAC alkyl-ester analogues towards mitochondrial damage.
Typically, JC-1 dye has an inherent green fluorescence at 530 nm. Upon reaching the cell, due to the structural properties of the dye, it will accumulate in the mitochondria making aggregates known as J-aggregates. These J-aggregates consists of a red shifted fluorescence (590 nm). Damaged or unhealthy mitochondria, due to their depolarized membrane potential (compared to healthy ones), will have lesser amounts of aggregates and thus will have low intensity of red emission. Cells with healthy mitochondria will have a more prominent red fluorescence than that in cells with damaged/unhealthy mitochondria due to the ability in forming J-aggregates.
ARPE-19 cells were grown in black, clear bottom 96 well plates. […] With increasing time and dose of HQ, a drop in 590 nm/530 nm fluorescence is seen due to the depolarization of the mitochondria.
Next, to assess the effect of NAC alkyl-ester analogues on oxidative damage in mitochondria (FIG. 12B), ARPE-19 cells were pretreated with 1 mM NAC, NAC alkyl-ester analogues, NACA, GSH-EE and 1 μM MitoQ for 1 and 24 hours. […] The JC-1 solution was removed and washed once with PBS and fluorescence measurements were obtained in PBS at 485 nm excitation and emission at 535 nm and 590 nm. […]

For `CC(=O)N[C@@H](CS)C(=O)O` [NAC, N-acetylcysteine], the “concentration needed for 100% cell viability relative to NACBE” value ([1]; NAC 0.5 mM versus NACBE 0.05 mM) was 10 ×, the “pretreatment concentration at which 100% cell viability was obtained” value ([1]; pretreatment 0.001-1.0 mM for 24 hours, then 500 μM HQ for 16 hours) was 0.5 mM and the “ZO-1 staining of cell-cell junctions” value ([2]; 1 mM for 24 hours, without HQ) was “proper cell-cell junctions”. The “ZO-1 staining of cellular junctions after exposure to HQ” value ([2]; 1 mM pretreatment for 24 hours, then 500 μM HQ for 2 hours) was “diminished or was completely absent”, the “compound and metabolite detected within the cells by HPLC” value [3] was “no NAC was detected” and the “cellular GSH level (luminescence) compared to untreated cells” value [4] was “did not produce any significant GSH”. For the same compound, the “ATP production after HQ insult” value ([5]; 1 mM pretreatment, then 500 μM HQ for 3, 6 and 8 hours) was “some protection”, the “protection of mitochondrial DNA amplification against HQ” value ([6]; pretreatment for 24 hours (1 mM), then 500 uM HQ for 24 hours) was “did not show any signs of protection” and the “mitochondrial membrane potential after HQ (JC-1 staining)” value [7] was “did not help to retain mitochondrial depolarization”.
For `CCCOC(=O)[C@H](CS)NC(C)=O` [NACPE, N-acetylcysteine propyl ester], the “cellular GSH level (luminescence) compared to untreated cells” value [4] was “produced the highest amounts of GSH”.
With `Oc1ccc(O)cc1` [HQ, hydroquinone] the viability at 16 h, 500 μM [8] was about 60%, the “non-lethal HQ doses” value ([1]; human, 16 h) was “less than 400 μM” and the “mitochondrial depolarization (590 nm/530 nm fluorescence)” value [9] was “moderate depolarization”. The “level of ATP” value ([5]; 500 μM HQ for 3, 6 and 8 hours) was “the level of ATP decreased” and the “amplification of mitochondrial DNA” value ([6]; 500 uM HQ for 24 hours) was “drastically reduced the amplification of mitochondrial DNA”.
For `CCOC(=O)[C@H](CS)NC(C)=O` [NACEE, N-acetylcysteine ethyl ester], the “cellular GSH level (luminescence) compared to untreated cells” value [4] was “produced the highest amounts of GSH”.
For `CC(=O)N[C@@H](CS)C(N)=O`, the “cellular GSH level (luminescence) compared to untreated cells” value [4] was “did not produce any significant GSH”.
With `CCOC(=O)CNC(=O)[C@H](CS)NC(=O)CC[C@H](N)C(=O)O` [GSH-EE, glutathione ethyl ester] the “cellular GSH level (luminescence) compared to untreated cells” value [4] was “did not produce any significant GSH”.
